# Laboratory results published in patent US20210283099A1, “CDC7 KINASE INHIBITORS AND USES THEREOF” (SLOAN-KETTERING INSTITUTE FOR CANCER RESEARCH, priority 2010, published 2021).
# Experiments:
# Assay in all cases: Cytotoxicity assay (Alamar blue)
# Type in all cases: cell-based
# 132 = conditions: Homo sapiens, Patient sample of Chronic Lymphocytic Leukemia
# Description: (§1) FIGS. 16A-16B. Granaticin A and Granaticin B inhibit multiple tumor types: The indicated cell lines and primary patient samples were tested against the compounds listed in standard cytotoxicity assays (12 point dose response using Alamar blue reduction as an indicator of cell viability). Assays were done in triplicate and IC50 determinations were run in 12-point serial dilutions from […] to 5 nM. […] These include ras and EGFR gatekeeper mutation containing cell lines in addition to p53 mutant cell lines and other known chemotherapy resistant cell lines. Specifically, this included multi-drug resistance phenotype (MDR-overexpressing) cell lines from multiple hematologic and solid tumor cell lines. Table 1 highlights a series of primary patient leukemia samples-both acute and chronic and treatment naïve and refractory tested against granaticins A and B and Derivatives 1 and 2 (see Examples).
# A2780 = conditions: Human ovarian carcinoma
# Description: as §1
# ALBU = conditions: Homo sapiens, Patient sample of essential thrombocythemia transformed to refractory acute myelogenous leukemia
# Description: as §1
# BE(2)C = conditions: human neuroblastoma, p53 mutant
# Description: as §1
# H11-18 = conditions: Human lung adenocarcinoma, L858R EGFR mutation
# Description: as §1
# H1650 = conditions: NCI-H1650, Human lung adenocarcinoma, DelE746-A750 EGFR mutation, wild-type RAS, PTEN null
# Description: as §1
# H1734 = conditions: NCI-H1734, Human lung adenocarcinoma, G13C KRAS mutation
# Description: as §1
# H2030 = conditions: NCI-H2030, human lung adenocarcinoma, wild-type EGFR, G12C KRAS mutation, G262V P53 mutation, PTEN null
# Description: as §1
# H2122 = conditions: NCI-H2122, human lung adenocarcinoma, G12C KRAS mutation, Q16L and C176F P53 mutations
# Description: as §1
# H23 = conditions: NCI-H23, Human lung adenocarcinoma, G12c KRAS mutation, M246I P53 mutation
# Description: as §1
# H358 = conditions: NCI-H358, Human lung adenocarcinoma, G13C KRAS mutation
# Description: as §1
# H460 = conditions: NCI-H460, human large cell lung carcinoma, Q61H KRAS mutation
# Description: as §1
# H820 = conditions: NCI-H820, human lung adenocarcinoma, Del E746-E749 and T790M EGFR mutations
# Description: as §1
# HCC827 = conditions: human lung adenocarcinoma, DelE746-A750 EGFR mutation
# Description: as §1
# HELA N10 = conditions: human cervical adenocarcinoma (positive for human papillomavirus infection)
# Description: as §1
# HL60 MX1 = conditions: Homo sapiens, MDR variant of HL60 selected with mitoxantrone-clone 1
# Description: as §1
# HL60 MX2 = conditions: Homo sapiens, MDR variant of HL60 selected with mitoxantrone-clone 2
# Description: as §1
# HL60 = conditions: HL-60, Human Acute Promyelocytic leukemia
# Description: as §1
# HPLD1 = conditions: Immortalized human bronchiolar epithelial cell with SV-40 Large T antigen
# Description: as §1
# JAKL = conditions: Homo sapiens, Patient sample of CLL with trisomy of chromosome 12 and unmutated Ig heavy chain locus
# Description: as §1
# JEKO = conditions: Human Mantle Cell Lymphoma
# Description: as §1
# JOBL = conditions: Homo sapiens, Patient sample of relapsed/refractory acute myelogenous leukemia
# Description: as §1
# JOHO = conditions: Homo sapiens, Patient sample of primary refractory AML with inv3 and monosomy 7 (refractory to allogeneic BMT)
# Description: as §1
# JUCO = conditions: Homo sapiens, Patient sample of pre-B cell ALL with t(4;11) involving the MLL gene
# Description: as §1
# JURKAT E61 = conditions: Jurkat E6.1, Human Acute Lymphoblastic T-cell leukemia
# Description: as §1
# KASUMI4 = conditions: Kasumi-4, Human CML transformed to acute myeloid leukemia, overexpression of EVI1
# Description: as §1
# MAWI = conditions: Homo sapiens, Patient sample of relpased/refractory AML with normal cytogenetics
# Description: as §1
# MESO47 = conditions: human mesothelioma, WT-1 overexpression
# Description: as §1
# MIHA = conditions: Homo sapiens, Patient sample of relapsed/refractory acute biphenotypic leukemia (refractory to allogeneic bone marrow transplant)
# Description: as §1
# RADO = conditions: Homo sapiens, Patient sample of primary refractory AML with multiple chromosomal abnormalities (−5, −7)
# Description: as §1
# RB355 = conditions: Human retinoblastoma
# Description: as §1
# RH30 = conditions: Human rhabdomyosarcoma, P53 mutation
# Description: as §1
# SKMEL28 = conditions: SK-MEL-28, Human melanoma
# Description: as §1
# SW1736 = conditions: SW-1736, Human anaplastic thyroid carcinoma with BRAF V600E mutation
# Description: as §1
Structure (SMILES),IC50 132 [µM],IC50 (A2780) [µM],IC50 (ALBU) [µM],IC50 (BE(2)C) [µM],IC50 (H11-18) [µM],IC50 (H1650) [µM],IC50 (H1734) [µM],IC50 (H2030) [µM],IC50 (H2122) [µM],IC50 (H23) [µM],IC50 (H358) [µM],IC50 (H460) [µM],IC50 (H820) [µM],IC50 (HCC827) [µM],IC50 (HELA N10) [µM],IC50 (HL60 MX1) [µM],IC50 (HL60 MX2) [µM],IC50 (HL60) [µM],IC50 (HPLD1) [µM],IC50 (JAKL) [µM],also measured
"CC1OC2CC(O)C1(O)c1c(O)c3c(c(O)c12)C(=O)C1=C(C3=O)[C@H](C)O[C@H]2CC(=O)O[C@@H]12 (some centres unmarked) [Granaticin A, granaticin A]",0.13,0.12,0.43,0.07,0.42,0.29,0.24,0.49,1.19,0.12,0.21,0.39,0.09,0.28,1.27,0.17,0.11,0.14,0.18,0.05,IC50 (JEKO): 0.04 µM; IC50 (JOBL): 0.56 µM; IC50 (JOHO): 0.88 µM; IC50 (JUCO): 0.08 µM; IC50 (JURKAT E61): 0.05 µM; IC50 (KASUMI4): 0.3 µM; IC50 (MAWI): 0.72 µM; IC50 (MESO47): 0.61 µM; IC50 (MIHA): 0.3 µM; IC50 (RADO): 0.06 µM; IC50 (RB355): 0.09 µM; IC50 (RH30): 0.13 µM; IC50 (SKMEL28): 0.54 µM; IC50 (SW1736): 0.16 µM
"CC1OC2CC(O[C@H]3CC[C@H](O)[C@H](C)O3)C1(O)c1c(O)c3c(c(O)c12)C(=O)C1=C(C3=O)[C@H](C)O[C@H]2CC(=O)O[C@@H]12 (some centres unmarked) [Granaticin B, granaticin B]",0.01,0.02,0.03,0.04,0.06,0.06,0.04,0.22,0.21,0.05,0.05,0.08,0.05,0.12,0.97,0.08,0.07,0.09,0.04,0.01,IC50 (JEKO): 0.02 µM; IC50 (JOBL): 0.19 µM; IC50 (JOHO): 0.17 µM; IC50 (JUCO): 0.01 µM; IC50 (JURKAT E61): 0.02 µM; IC50 (KASUMI4): 0.18 µM; IC50 (MAWI): 0.18 µM; IC50 (MESO47): 0.38 µM; IC50 (MIHA): 0.04 µM; IC50 (RADO): 0.03 µM; IC50 (RB355): 0.04 µM; IC50 (RH30): 0.08 µM; IC50 (SKMEL28): 0.34 µM; IC50 (SW1736): 0.02 µM
